Test results from ChEMBL document CHEMBL4196124, “Reverse Hydroxamate Inhibitors of Bone Morphogenetic Protein 1” (ACS Med Chem Lett, 2018).
pIC50, pKi: −log10 of the molar value.

Assays:
[1] = target: T1, Tolloid-like protein 1 (Homo sapiens, UniProt O43897); assay: Binding affinity to TLL1 (unknown origin) using ((5-FAM)-ELIDQYDVQRDDSSDGSLED-K(5,6 TAMRA)-CONH2 as substrate incubated for 3.5 hrs followed by substrate addition by FRET assay
T1 sequence (O43897 whole entry): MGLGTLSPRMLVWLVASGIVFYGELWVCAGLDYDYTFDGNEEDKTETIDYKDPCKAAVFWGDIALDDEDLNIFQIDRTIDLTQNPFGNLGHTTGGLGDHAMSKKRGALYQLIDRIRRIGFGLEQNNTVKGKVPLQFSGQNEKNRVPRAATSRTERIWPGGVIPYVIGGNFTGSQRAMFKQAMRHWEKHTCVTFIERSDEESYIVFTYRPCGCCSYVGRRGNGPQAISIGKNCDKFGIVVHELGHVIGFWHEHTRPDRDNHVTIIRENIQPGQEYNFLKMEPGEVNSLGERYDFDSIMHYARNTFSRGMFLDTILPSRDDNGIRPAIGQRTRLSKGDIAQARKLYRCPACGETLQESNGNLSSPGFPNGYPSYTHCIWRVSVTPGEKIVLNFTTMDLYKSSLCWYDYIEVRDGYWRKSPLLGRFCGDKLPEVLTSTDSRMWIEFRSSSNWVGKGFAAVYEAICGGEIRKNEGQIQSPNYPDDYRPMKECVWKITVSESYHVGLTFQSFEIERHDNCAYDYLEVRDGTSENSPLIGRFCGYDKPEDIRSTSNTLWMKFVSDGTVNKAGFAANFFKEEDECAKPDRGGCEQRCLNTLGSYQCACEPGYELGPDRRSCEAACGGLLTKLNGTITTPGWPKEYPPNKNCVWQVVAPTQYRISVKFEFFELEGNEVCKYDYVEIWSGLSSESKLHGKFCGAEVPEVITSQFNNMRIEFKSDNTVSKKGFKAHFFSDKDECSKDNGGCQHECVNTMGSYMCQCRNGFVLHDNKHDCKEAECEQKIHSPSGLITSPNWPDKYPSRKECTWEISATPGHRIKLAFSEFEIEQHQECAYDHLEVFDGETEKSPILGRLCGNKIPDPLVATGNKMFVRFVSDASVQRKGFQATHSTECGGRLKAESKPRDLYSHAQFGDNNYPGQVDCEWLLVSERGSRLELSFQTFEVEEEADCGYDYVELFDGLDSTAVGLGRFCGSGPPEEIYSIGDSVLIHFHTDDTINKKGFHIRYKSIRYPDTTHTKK

[2] = target: T2, Bone morphogenetic protein 1 (Homo sapiens, UniProt P13497); assay: Inhibition of recombinant human N-terminal 6His/flag-tagged BMP1 (121 to 721 residues) expressed in CHO cells using ((5-FAM)-ELIDQYDVQRDDSSDGSLED-K(5,6 TAMRA)-CONH2) as substrate preincubated for 10 mins followed by substrate addition measured after 60 mins
T2 sequence (P13497 whole entry): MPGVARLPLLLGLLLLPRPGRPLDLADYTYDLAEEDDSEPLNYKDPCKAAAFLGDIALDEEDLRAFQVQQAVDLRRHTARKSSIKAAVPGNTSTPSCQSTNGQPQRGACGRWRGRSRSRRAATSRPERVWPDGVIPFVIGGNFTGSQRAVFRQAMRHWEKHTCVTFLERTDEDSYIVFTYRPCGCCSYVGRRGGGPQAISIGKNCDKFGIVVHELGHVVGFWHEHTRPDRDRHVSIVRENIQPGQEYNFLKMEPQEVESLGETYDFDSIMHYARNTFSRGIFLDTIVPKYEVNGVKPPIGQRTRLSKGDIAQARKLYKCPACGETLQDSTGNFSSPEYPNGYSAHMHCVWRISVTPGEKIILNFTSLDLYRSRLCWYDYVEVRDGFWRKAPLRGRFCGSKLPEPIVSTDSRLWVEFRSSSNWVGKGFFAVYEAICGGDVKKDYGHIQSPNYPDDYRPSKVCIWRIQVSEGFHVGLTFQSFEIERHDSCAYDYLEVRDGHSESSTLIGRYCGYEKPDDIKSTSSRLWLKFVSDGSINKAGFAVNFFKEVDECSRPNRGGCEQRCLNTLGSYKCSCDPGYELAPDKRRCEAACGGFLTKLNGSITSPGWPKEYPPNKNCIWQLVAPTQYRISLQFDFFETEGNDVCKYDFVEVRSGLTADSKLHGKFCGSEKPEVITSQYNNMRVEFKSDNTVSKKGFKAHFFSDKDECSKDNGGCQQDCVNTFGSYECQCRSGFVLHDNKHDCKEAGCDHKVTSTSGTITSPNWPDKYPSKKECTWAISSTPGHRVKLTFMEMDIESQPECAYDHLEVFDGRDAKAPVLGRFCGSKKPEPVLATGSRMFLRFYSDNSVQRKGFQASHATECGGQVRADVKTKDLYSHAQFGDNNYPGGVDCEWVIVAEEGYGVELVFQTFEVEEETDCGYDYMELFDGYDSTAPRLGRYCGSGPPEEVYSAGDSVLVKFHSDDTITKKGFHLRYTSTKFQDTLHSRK

[3] = target: T3, Bone morphogenetic protein 1 (Homo sapiens) (UniProt P13497); assay: Binding affinity to BMP1 (unknown origin) assessed as association rate constant using ((5-FAM)-ELIDQYDVQRDDSSDGSLED-K(5,6 TAMRA)-CONH2 as substrate by FRET based stopped-flow spectrofluorometric method
T3 sequence (whole entry): T2 sequence (P13497 whole entry)

[4] = target: T2, Bone morphogenetic protein 1; assay: Binding affinity to BMP1 (unknown origin) using ((5-FAM)-ELIDQYDVQRDDSSDGSLED-K(5,6 TAMRA)-CONH2 as substrate preincubated for 3 hrs followed by substrate addition measured for 120 mins by FRET assay
[5] = target: T3, Bone morphogenetic protein 1 (Homo sapiens); assay: Binding affinity to BMP1 (unknown origin) assessed as dissociation rate constant using ((5-FAM)-ELIDQYDVQRDDSSDGSLED-K(5,6 TAMRA)-CONH2 as substrate preincubated for 0.5 hrs followed by substrate addition measured over 4 hrs by rapid jump dilution method
[6] = target: T4, Tolloid-like protein 2 (Homo sapiens, UniProt Q9Y6L7); assay: Binding affinity to TLL2 (unknown origin) using ((5-FAM)-ELIDQYDVQRDDSSDGSLED-K(5,6 TAMRA)-CONH2 as substrate incubated for 3.5 hrs followed by substrate addition by FRET assay
T4 sequence (Q9Y6L7 whole entry): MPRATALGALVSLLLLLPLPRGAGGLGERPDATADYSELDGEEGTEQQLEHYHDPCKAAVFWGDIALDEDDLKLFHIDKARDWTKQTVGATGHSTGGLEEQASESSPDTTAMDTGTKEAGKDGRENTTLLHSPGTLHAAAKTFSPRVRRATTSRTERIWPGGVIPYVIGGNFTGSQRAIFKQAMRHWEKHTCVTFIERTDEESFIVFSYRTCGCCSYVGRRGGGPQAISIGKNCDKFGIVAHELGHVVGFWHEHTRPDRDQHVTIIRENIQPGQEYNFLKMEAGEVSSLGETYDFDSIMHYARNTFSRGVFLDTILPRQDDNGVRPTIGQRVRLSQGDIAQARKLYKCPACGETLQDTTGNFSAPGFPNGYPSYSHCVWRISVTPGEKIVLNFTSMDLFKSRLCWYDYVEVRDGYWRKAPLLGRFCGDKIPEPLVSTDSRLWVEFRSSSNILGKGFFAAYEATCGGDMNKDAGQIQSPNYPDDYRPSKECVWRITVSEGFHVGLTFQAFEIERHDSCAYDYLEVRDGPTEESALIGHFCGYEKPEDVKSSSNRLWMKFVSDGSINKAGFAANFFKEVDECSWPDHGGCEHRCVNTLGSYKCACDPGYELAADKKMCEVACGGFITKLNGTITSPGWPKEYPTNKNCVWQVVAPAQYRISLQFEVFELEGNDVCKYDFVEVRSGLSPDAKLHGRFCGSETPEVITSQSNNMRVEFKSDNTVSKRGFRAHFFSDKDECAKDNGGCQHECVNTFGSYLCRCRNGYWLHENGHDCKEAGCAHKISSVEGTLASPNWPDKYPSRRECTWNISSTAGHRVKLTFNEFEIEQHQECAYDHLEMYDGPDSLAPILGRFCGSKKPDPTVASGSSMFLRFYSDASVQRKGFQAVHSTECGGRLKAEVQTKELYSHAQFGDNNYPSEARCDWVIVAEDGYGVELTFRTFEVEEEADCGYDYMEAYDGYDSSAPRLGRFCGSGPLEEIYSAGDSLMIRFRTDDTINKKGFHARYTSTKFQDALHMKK

[7] = Mean residence time in sc dosed dog; format: ADME, organism-based, Canis lupus familiaris; settings: in vivo
[8] = test system: Canis familiaris; assay: Dose normalized AUC in subcutaneously dosed dog; format: ADME, organism-based, Canis lupus familiaris; settings: in vivo, sc
[9] = Mean residence time in sc dosed rat; format: ADME, organism-based; settings: in vivo
[10] = target: T3, Bone morphogenetic protein 1 (Homo sapiens); assay: Binding affinity to BMP1 (unknown origin) assessed as half life using ((5-FAM)-ELIDQYDVQRDDSSDGSLED-K(5,6 TAMRA)-CONH2 as substrate preincubated for 0.5 hrs followed by substrate addition measured over 4 hrs by rapid jump dilution method
[11] = test system: Rattus norvegicus; assay: Dose normalized AUC in subcutaneously dosed rat; format: ADME, organism-based; settings: in vivo, sc
[12] = target: Macrophage metalloelastase (Homo sapiens, UniProt P39900); assay: Inhibition of MMP12 (unknown origin)
Macrophage metalloelastase, sequence (P39900 whole entry): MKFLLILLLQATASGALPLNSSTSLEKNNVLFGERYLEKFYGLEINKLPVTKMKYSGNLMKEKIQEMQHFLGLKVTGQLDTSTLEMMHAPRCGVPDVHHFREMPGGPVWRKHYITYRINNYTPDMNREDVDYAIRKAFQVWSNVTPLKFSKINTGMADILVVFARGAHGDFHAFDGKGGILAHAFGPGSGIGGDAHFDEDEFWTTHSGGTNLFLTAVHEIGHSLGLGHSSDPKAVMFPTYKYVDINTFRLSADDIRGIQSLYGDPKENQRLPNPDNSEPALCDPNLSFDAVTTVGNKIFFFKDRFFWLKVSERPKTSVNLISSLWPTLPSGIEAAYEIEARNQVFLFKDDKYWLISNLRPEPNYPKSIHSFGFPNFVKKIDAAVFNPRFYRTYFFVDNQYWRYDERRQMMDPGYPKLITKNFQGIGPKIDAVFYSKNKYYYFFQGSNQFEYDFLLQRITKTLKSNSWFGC

Row | pIC50 [2] | pIC50 [12] | Compound | other results
1 | > 9.00 |  | CCCCC[C@@H](C(=O)NCNC(=O)c1ccc(-c2cc(OCC)cc(P(=O)(O)O)c2)o1)[C@@H](CC)N(O)C=O | pKi [1]: 9.62; K [3]: 3.6e+06 M⁻¹ s⁻¹; pKi [4]: 10.40; K [5]: 0.93 h⁻¹; pKi [6]: 9.59; MRT [7]: > 2 h; AUC/dose [8]: 5 kg·h/L; MRT [9]: > 2 h; T1/2 [10]: 0.75 h; AUC/dose [11]: 2.3 kg·h/L
2 | 8.10 |  | CCCCC[C@H](CN(O)C=O)C(=O)NCNC(=O)c1ccc(-c2cccc(C(=O)O)c2)o1 | 
3 | 7.60 |  | CCCCC[C@H](CN(O)C=O)C(=O)NCNC(=O)c1ccc(-c2ccccc2)o1 | 
4 | 6.90 | < 5.00 | CCCCC[C@@H](C(=O)NCNC(=O)c1cc2cccc(OC)c2o1)[C@@H](CC)N(O)C=O | 
5 | 9.00 |  | CCCCC[C@H](CN(O)C=O)C(=O)NCNC(=O)c1ccc(-c2ccc(C(=O)O)cc2)o1 | 
6 | > 9.00 |  | CCCCC[C@@H](C(=O)NCNC(=O)c1ccc(-c2cc(OCC)cc(C(=O)N[C@@H](CC(=O)O)C(=O)O)c2)o1)[C@@H](CC)N(O)C=O | 
7 | 5.90 | 5.90 | CCC[C@H](CN(O)C=O)C(=O)NCNC(=O)c1cc2cccc(OC)c2o1 | 
8 | > 9.00 |  | CCCCC[C@@H](C(=O)NCNC(=O)c1ccc(-c2ccc(C(=O)N[C@@H](CC(=O)O)C(=O)O)c(OCC)c2)o1)[C@@H](CC)N(O)C=O | pKi [1]: 10.51; K [3]: 5.5e+07 M⁻¹ s⁻¹; pKi [4]: 11.17; K [5]: 2.3 h⁻¹; pKi [6]: 10.41; MRT [7]: > 2 h; AUC/dose [8]: 0.85 kg·h/L; MRT [9]: > 2 h; T1/2 [10]: 0.3 h; AUC/dose [11]: 0.27 kg·h/L
9 | 6.80 | 6.40 | CCCCC[C@H](CN(O)C=O)C(=O)NCNC(=O)c1cc2cccc(OC)c2o1 | 
10 | > 9.00 |  | CCCCC[C@@H](C(=O)NCNC(=O)c1ccc(-c2cc(OCC)cc(C(=O)O)c2)o1)[C@@H](CC)N(O)C=O | 
11 | > 9.00 |  | CCCCC[C@@H](C(=O)NCNC(=O)c1ccc(-c2ccc(C(=O)O)c(OCC)c2)o1)[C@@H](CC)N(O)C=O | 
12 | 6.80 | 5.40 | COc1cccc2cc(C(=O)NCNC(=O)[C@H](Cc3ccccc3)CN(O)C=O)oc12 | 
13 | > 9.00 |  | CCCCC[C@@H](C(=O)NCNC(=O)c1ccc(-c2ccc(P(=O)(O)O)c(OCC)c2)o1)[C@@H](CC)N(O)C=O | 
14 | 5.40 | < 5.00 | CCCCC[C@@H](CN(O)C=O)C(=O)NCNC(=O)c1cc2cccc(OC)c2o1 | 
15 | < 5.00 | 6.70 | CCCCC[C@@H](C(=O)NCNC(=O)c1cc2cccc(OC)c2o1)[C@H](CC)N(O)C=O | 
16 | 9.00 |  | CCCCC[C@H](CN(O)C=O)C(=O)NCNC(=O)c1ccc(-c2cccc(OCC)c2)o1 | 
17 | 5.20 | < 5.00 | COc1cccc2cc(C(=O)NCNC(=O)CCN(O)C=O)oc12 | 
18 | 7.70 |  | CCCCC[C@H](CN(O)C=O)C(=O)NCNC(=O)c1ccc(-c2cccc(OC)c2)o1 | 
